Columns and labels:
Type in all cases: in vivo
[1] = tested on: redroot pigweed (Amaranthus retroflexus); assay: Test G Post-Emergence Protocol; settings: Amaranthus retroflexus, post-emergence, 312 h, read-out: Pigweed, Redroot damage rating; for pest or weed control at 15.625 g/ha: 15.625 g ai/ha, evaluated after 13 days (100=total damage to plant; 0=no damage to plant); for pest or weed control at 62.5 g/ha: 62.5 g ai/ha; for pest or weed control at 62.5 g/ha / pest or weed control at 250 g/ha: evaluated after 13 days, 100=total damage to plant, 0=no damage to plant; for pest or weed control at 250 g/ha: 250 g ai/ha
Summary of the method: (§1)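 Post-emergence herbicidal damage, scored visually 0–100 at 13 days. Application at 15.625, 62.5 or 250 g/ha onto 8-day-old plants grown under glasshouse control.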

[2] = tested on: ivy-leaved morning glory (Ipomoea hederacea); assay: Test G Post-Emergence Protocol; settings: Ipomoea, post-emergence, 312 h, read-out: Morningglory, Ivy-leaved damage rating; for pest or weed control at 15.625 g/ha: 15.625 g ai/ha, evaluated after 13 days (100=total damage to plant; 0=no damage to plant); for pest or weed control at 62.5 g/ha: 62.5 g ai/ha; for pest or weed control at 62.5 g/ha / pest or weed control at 250 g/ha: evaluated after 13 days, 100=total damage to plant, 0=no damage to plant; for pest or weed control at 250 g/ha: 250 g ai/ha
Summary of the method: as §1

[3] = tested on: velvetleaf (Abutilon theophrasti); assay: Test G Post-Emergence Protocol; settings: Abutilon theophrasti, post-emergence, 312 h, read-out: Velvetleaf damage rating; for pest or weed control at 15.625 g/ha: 15.625 g ai/ha, evaluated after 13 days (100=total damage to plant; 0=no damage to plant); for pest or weed control at 62.5 g/ha: 62.5 g ai/ha; for pest or weed control at 62.5 g/ha / pest or weed control at 250 g/ha: evaluated after 13 days, 100=total damage to plant, 0=no damage to plant; for pest or weed control at 250 g/ha: 250 g ai/ha
Summary of the method: as §1

[4] = tested on: giant foxtail (Setaria faberi); assay: Test G Post-Emergence Protocol; settings: Setaria faberi, post-emergence, 312 h, read-out: Foxtail, Giant damage rating; for pest or weed control at 15.625 g/ha: 15.625 g ai/ha, evaluated after 13 days (100=total damage to plant; 0=no damage to plant); for pest or weed control at 62.5 g/ha: 62.5 g ai/ha; for pest or weed control at 62.5 g/ha / pest or weed control at 250 g/ha: evaluated after 13 days, 100=total damage to plant, 0=no damage to plant; for pest or weed control at 250 g/ha: 250 g ai/ha
Summary of the method: as §1

[5] = tested on: barnyardgrass (Echinochloa crus-galli); assay: Test G Post-Emergence Protocol; settings: Echinochloa crus-galli, post-emergence, 312 h, read-out: Barnyardgrass damage rating; for pest or weed control at 15.625 g/ha: 15.625 g ai/ha, evaluated after 13 days (100=total damage to plant; 0=no damage to plant); for pest or weed control at 62.5 g/ha: 62.5 g ai/ha; for pest or weed control at 62.5 g/ha / pest or weed control at 250 g/ha: evaluated after 13 days, 100=total damage to plant, 0=no damage to plant; for pest or weed control at 250 g/ha: 250 g ai/ha
Summary of the method: as §1

[6] = tested on: corn (Zea mays); assay: Test G Post-Emergence Protocol; settings: Zea mays, post-emergence, 312 h, read-out: Corn damage rating; for plant injury at 15.625 g/ha: 15.625 g ai/ha, evaluated after 13 days (100=total damage to plant; 0=no damage to plant); for plant injury at 62.5 g/ha: 62.5 g ai/ha; for plant injury at 62.5 g/ha / plant injury at 250 g/ha: evaluated after 13 days, 100=total damage to plant, 0=no damage to plant; for plant injury at 250 g/ha: 250 g ai/ha
Summary of the method: as §1

[7] = tested on: redroot pigweed (Amaranthus retroflexus); assay: Test G Pre-Emergence Protocol; settings: Amaranthus retroflexus, pre-emergence, 312 h, evaluated after 13 days; for pest or weed control at 15.625 g/ha: 15.625 g ai/ha; for pest or weed control at 15.625 g/ha / pest or weed control at 250 g/ha: read-out: Pigweed, Redroot damage rating (100=total damage to plant; 0=no damage to plant); for pest or weed control at 62.5 g/ha: 62.5 g ai/ha, 100=total damage to plant, 0=no damage to plant, read-out: Pigweed, Redroot damage rating; for pest or weed control at 250 g/ha: 250 g ai/ha
Summary of the method: (§2)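 Spraying took place one day after sowing, at 15.625, 62.5 or 250 g/ha, using an acetone/water (50:50) spray solution containing 0.5% Tween 20. Plants were kept under glasshouse conditions (24/16 °C, 14 h light, 65% humidity, watered twice daily), and injury was rated 0–100 at day 13.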

[8] = tested on: ivy-leaved morning glory (Ipomoea hederacea); assay: Test G Pre-Emergence Protocol; settings: Ipomoea, pre-emergence, 312 h, evaluated after 13 days; for pest or weed control at 15.625 g/ha: 15.625 g ai/ha; for pest or weed control at 15.625 g/ha / pest or weed control at 250 g/ha: read-out: Morningglory, Ivy-leaved damage rating (100=total damage to plant; 0=no damage to plant); for pest or weed control at 62.5 g/ha: 62.5 g ai/ha, 100=total damage to plant, 0=no damage to plant, read-out: Morningglory, Ivy-leaved damage rating; for pest or weed control at 250 g/ha: 250 g ai/ha
Summary of the method: as §2

[9] = tested on: velvetleaf (Abutilon theophrasti); assay: Test G Pre-Emergence Protocol; settings: Abutilon theophrasti, pre-emergence, 312 h, evaluated after 13 days; for pest or weed control at 15.625 g/ha: 15.625 g ai/ha; for pest or weed control at 15.625 g/ha / pest or weed control at 250 g/ha: read-out: Velvetleaf damage rating (100=total damage to plant; 0=no damage to plant); for pest or weed control at 62.5 g/ha: 62.5 g ai/ha, 100=total damage to plant, 0=no damage to plant, read-out: Velvetleaf damage rating; for pest or weed control at 250 g/ha: 250 g ai/ha
Summary of the method: as §2

[10] = tested on: giant foxtail (Setaria faberi); assay: Test G Pre-Emergence Protocol; settings: Setaria faberi, pre-emergence, 312 h, evaluated after 13 days; for pest or weed control at 15.625 g/ha: 15.625 g ai/ha; for pest or weed control at 15.625 g/ha / pest or weed control at 250 g/ha: read-out: Foxtail, Giant damage rating (100=total damage to plant; 0=no damage to plant); for pest or weed control at 62.5 g/ha: 62.5 g ai/ha, 100=total damage to plant, 0=no damage to plant, read-out: Foxtail, Giant damage rating; for pest or weed control at 250 g/ha: 250 g ai/ha
Summary of the method: as §2

[11] = tested on: barnyardgrass (Echinochloa crus-galli); assay: Test G Pre-Emergence Protocol; settings: Echinochloa crus-galli, pre-emergence, 312 h, evaluated after 13 days; for pest or weed control at 15.625 g/ha: 15.625 g ai/ha; for pest or weed control at 15.625 g/ha / pest or weed control at 250 g/ha: read-out: Barnyardgrass damage rating (100=total damage to plant; 0=no damage to plant); for pest or weed control at 62.5 g/ha: 62.5 g ai/ha, 100=total damage to plant, 0=no damage to plant, read-out: Barnyardgrass damage rating; for pest or weed control at 250 g/ha: 250 g ai/ha
Summary of the method: as §2

[12] = tested on: corn (Zea mays); assay: Test G Pre-Emergence Protocol; settings: Zea mays, pre-emergence, 312 h, evaluated after 13 days; for plant injury at 15.625 g/ha: 15.625 g ai/ha; for plant injury at 15.625 g/ha / plant injury at 250 g/ha: read-out: Corn damage rating (100=total damage to plant; 0=no damage to plant); for plant injury at 62.5 g/ha: 62.5 g ai/ha, 100=total damage to plant, 0=no damage to plant, read-out: Corn damage rating; for plant injury at 250 g/ha: 250 g ai/ha
Summary of the method: as §2

| Compound | pest or weed control at 15.625 g/ha [1] [%] | pest or weed control at 62.5 g/ha [1] [%] | pest or weed control at 250 g/ha [1] [%] | pest or weed control at 15.625 g/ha [2] [%] | pest or weed control at 62.5 g/ha [2] [%] | pest or weed control at 250 g/ha [2] [%] | pest or weed control at 15.625 g/ha [3] [%] | pest or weed control at 62.5 g/ha [3] [%] | pest or weed control at 250 g/ha [3] [%] | pest or weed control at 15.625 g/ha [4] [%] | pest or weed control at 62.5 g/ha [4] [%] | pest or weed control at 250 g/ha [4] [%] | pest or weed control at 15.625 g/ha [5] [%] | pest or weed control at 62.5 g/ha [5] [%] | pest or weed control at 250 g/ha [5] [%] | plant injury at 15.625 g/ha [6] [%] | plant injury at 62.5 g/ha [6] [%] | plant injury at 250 g/ha [6] [%] | pest or weed control at 15.625 g/ha [7] [%] | pest or weed control at 62.5 g/ha [7] [%] | also measured |
| --- | --- | --- | --- | --- | --- | --- | --- | --- | --- | --- | --- | --- | --- | --- | --- | --- | --- | --- | --- | --- | --- |
| Cc1ccc([C@H]2CN(C)C(=O)[C@@H]2C(=O)Nc2cccc3c2S(=O)(=O)CC3)cc1 (racemic) [Compound 1739] | 0 | 0 | 0 | 0 | 0 | 0 | 0 | 0 | 0 | 0 | 0 | 0 | 0 | 0 | 0 | 0 | 0 | 0 | 0 | 0 | pest or weed control at 250 g/ha [7]: 0%; pest or weed control at 15.625 g/ha [8]: 0%; pest or weed control at 62.5 g/ha [8]: 0%; pest or weed control at 250 g/ha [8]: 0%; pest or weed control at 15.625 g/ha [9]: 0%; pest or weed control at 62.5 g/ha [9]: 0%; pest or weed control at 250 g/ha [9]: 0%; pest or weed control at 15.625 g/ha [10]: 0%; pest or weed control at 62.5 g/ha [10]: 0%; pest or weed control at 250 g/ha [10]: 0%; pest or weed control at 15.625 g/ha [11]: 0%; pest or weed control at 62.5 g/ha [11]: 0%; pest or weed control at 250 g/ha [11]: 0%; plant injury at 15.625 g/ha [12]: 0%; plant injury at 62.5 g/ha [12]: 0%; plant injury at 250 g/ha [12]: 0% |
| CN1C[C@@H](c2ccc(C(F)(F)F)cc2)[C@H](C(=O)Nc2cscn2)C1=O (racemic) [Compound 1659] | 0 | 0 | 20 | 0 | 0 | 0 | 0 | 0 | 0 | 0 | 0 | 40 | 0 | 0 | 20 | 0 | 0 | 10 | 0 | 0 | pest or weed control at 250 g/ha [7]: 0%; pest or weed control at 15.625 g/ha [8]: 0%; pest or weed control at 62.5 g/ha [8]: 0%; pest or weed control at 250 g/ha [8]: 0%; pest or weed control at 15.625 g/ha [9]: 0%; pest or weed control at 62.5 g/ha [9]: 0%; pest or weed control at 250 g/ha [9]: 0%; pest or weed control at 15.625 g/ha [10]: 0%; pest or weed control at 62.5 g/ha [10]: 0%; pest or weed control at 250 g/ha [10]: 0%; pest or weed control at 15.625 g/ha [11]: 0%; pest or weed control at 62.5 g/ha [11]: 0%; pest or weed control at 250 g/ha [11]: 0%; plant injury at 15.625 g/ha [12]: 0%; plant injury at 62.5 g/ha [12]: 0%; plant injury at 250 g/ha [12]: 0% |

Source: patent US12077503B2, “Substituted cyclic amides and their use as herbicides” (FMC CORPORATION, priority 2015, dated 2024)
